Measurements as given in ChEMBL document CHEMBL1130877, “The synthesis of new adenosine A3 selective ligands containing bioisosteric isoxazoles” (Bioorg Med Chem Lett, 1998).

Experiments:
[1] = target: Adenosine receptor A2a (Rattus norvegicus, UniProt P30543); test: Binding affinity for adenosine A2a receptor as inhibition of 3[H]-CGS 21680 binding in rat striatum; format: tissue-based
[2] = target: T1, Adenosine receptor A1 (Rattus norvegicus, UniProt P25099); test: Binding affinity for adenosine A1 receptor as inhibition of 3[H]-R-PIA binding in rat brain; format: tissue-based
T1 sequence (P25099 whole entry): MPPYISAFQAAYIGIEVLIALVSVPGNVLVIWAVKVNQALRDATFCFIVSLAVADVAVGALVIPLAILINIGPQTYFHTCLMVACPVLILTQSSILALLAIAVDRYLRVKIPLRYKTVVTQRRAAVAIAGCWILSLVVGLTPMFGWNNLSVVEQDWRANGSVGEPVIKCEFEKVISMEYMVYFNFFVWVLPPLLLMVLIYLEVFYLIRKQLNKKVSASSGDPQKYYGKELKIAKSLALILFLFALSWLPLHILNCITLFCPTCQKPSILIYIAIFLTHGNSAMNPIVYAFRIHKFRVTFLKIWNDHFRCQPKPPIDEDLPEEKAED

[3] = target: T2, Adenosine receptor A3 (Homo sapiens, UniProt P0DMS8); test: Binding affinity for adenosine A3 receptor as inhibition of [125I]AB-MECA binding to human receptor expressed in HEK 293 cells; format: cell-based, HEK293
T2 sequence (P0DMS8 whole entry): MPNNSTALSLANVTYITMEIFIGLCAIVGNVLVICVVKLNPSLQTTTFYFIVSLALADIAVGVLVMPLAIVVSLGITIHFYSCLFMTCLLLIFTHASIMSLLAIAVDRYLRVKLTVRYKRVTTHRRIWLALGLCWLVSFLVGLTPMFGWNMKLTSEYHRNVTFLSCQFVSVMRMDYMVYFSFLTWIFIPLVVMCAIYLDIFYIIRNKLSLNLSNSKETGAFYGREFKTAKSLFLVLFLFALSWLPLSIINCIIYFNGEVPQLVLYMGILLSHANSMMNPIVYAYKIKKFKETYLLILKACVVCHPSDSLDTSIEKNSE

Adenosine receptor A2a, sequence (P30543 whole entry): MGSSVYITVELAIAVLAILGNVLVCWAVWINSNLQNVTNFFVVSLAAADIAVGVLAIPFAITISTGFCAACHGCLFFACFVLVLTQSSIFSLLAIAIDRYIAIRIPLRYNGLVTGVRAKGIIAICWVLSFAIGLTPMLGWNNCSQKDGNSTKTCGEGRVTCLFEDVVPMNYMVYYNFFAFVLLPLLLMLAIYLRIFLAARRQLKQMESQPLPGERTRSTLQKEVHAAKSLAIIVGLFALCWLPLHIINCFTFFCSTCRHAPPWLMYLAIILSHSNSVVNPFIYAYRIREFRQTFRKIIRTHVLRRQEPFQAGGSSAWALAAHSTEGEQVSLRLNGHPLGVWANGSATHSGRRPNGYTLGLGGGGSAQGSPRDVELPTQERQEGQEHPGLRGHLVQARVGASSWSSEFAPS

Row | Ki [1] | Ki [2] | Ki [3] | SMILES
1 | 2100 nM | 2400 nM | 41 nM | CNC(=O)[C@H]1O[C@@H](n2cnc3c(NCc4ccccc4)ncnc32)[C@H](O)[C@@H]1O
2 | > 10000 nM | 1230 nM | 20 nM | C=C[C@H]1O[C@@H](n2cnc3c(NOC)nc(Cl)nc32)[C@H](O)[C@@H]1O

The next lines start with the compound.

Row | SMILES | Ki [1] | Ki [2] | Ki [3]
3 | O[C@@H]1[C@H](O)[C@@H](c2ccon2)O[C@H]1n1cnc2c(NCc3cccc(I)c3)nc(Cl)nc21 | 1900 nM | 1900 nM | 7.8 nM
4 | CONc1nc(Cl)nc2c1ncn2[C@@H]1O[C@H](CCl)[C@@H](O)[C@H]1O |  |  | 26 nM
5 | CONc1nc(Cl)nc2c1ncn2[C@@H]1O[C@H](c2ccon2)[C@@H](O)[C@H]1O | > 10000 nM | 620 nM | 31 nM
